From patent US20240342177A1, “METHODS OF TREATING BRAIN CANCER” (priority 2021, published 2024)

What was measured:
P008480 (Ependymoma) = experiment: In vitro efficacy, dose response in ependymoma culture
Protocol: (§1) The composition used in the methods of the present disclosure was tested at a 5-FU to FA (Leucovorin) ratio of 15:1 (termed ‘Deflexifol’), and compared to 5-FU as a single agent (‘5-FU’); FA (Leucovorin) as a single agent (‘Leucovorin’); or a combination of 5-FU and FA (Leucovorin) (‘5-FU+Leucovorin’).
(§2) Screening was conducted in a 96-well format, with N=4 curves, using: • three different DMG cell lines: P002306, DIPG-7 and RA055 • one ependymoma culture and • one set of healthy astrocytes (control model system).

P002306 (DMG) = experiment: In vitro efficacy, dose response in DMG neurospheres P002306
Protocol: (§3) Assessment of in vitro activity of the composition used in the methods of the present disclosure was undertaken in patient-derived Diffuse Midline Glioma (DMG) neurospheres.
(§4) In particular, activity of the composition against human DMG cells was compared to that of 5-FU, a combination of 5-FU and FA, or a media control.
as §1
(§5) The tested concentrations were selected with reference to the clinical maximum tolerated plasma concentration of 5-FU (530 μM), as detailed in Table 5.
as §2

DIPG-7 (DMG) = experiment: In vitro efficacy, dose response in DMG neurospheres DIPG-7; details: Homo sapiens
Protocol: as §3, §4, §1, §5, §2

P000302 (Healthy cells) = experiment: In vitro dose response in healthy astrocytes (control model system)
Protocol: as §1, §2

RA055 (DMG) = experiment: In vitro efficacy, dose response in DMG neurospheres RA055
Protocol: as §3, §4, §1, §5, §2

[1] = test system: U-87-MG human glioblastoma cell line; experiment: U-87-MG cell proliferation (Incucyte confluency); assay type: cell-based; details: 72 hours with drug, 5-FU concentration, read-out: IC50, inhibiting cell proliferation
Protocol: U-87-MG cells are maintained in DMEM (high glucose)+10% FCS
• 96-well 2D format (triplicate wells per drug concentration). • Cells seeded at 10,000 cells/well>24 hours incubation. • Drugs added 24 hours later and cells incubated a further 72 hours. • Cells imaged every 6 hours using Incucyte ZOOM for cell proliferation (confluency measurement) and evidence of cell death.

[2] = cited from earlier work

With O=c1[nH]cc(F)c(=O)[nH]1 [5-FU, 5-fluoro-2,4 (1H,3H)-pyrimidinedione] as the compound, how does the IC50 (P008480 (Ependymoma); Homo sapiens) read?
Its IC50 is over 500 µM.

And the “AUC (dose response)” value (P008480 (Ependymoma); P008480 (Ependymoma))?
The value was “AUC: 373.2”.

And the IC50 (P002306 (DMG); Homo sapiens)?
Its IC50 is about 1.9 µM.

What about the “AUC (dose response)” value (P002306 (DMG); P002306 (DMG)) of the same compound?
The value was “AUC: 171.4”.

What about the IC50 (DIPG-7 (DMG)) of the same compound?
Its IC50 is about 22.3 µM.

What about the IC50 (P000302 (Healthy cells); Homo sapiens, Astrocyte) of the same compound?
Its IC50 is about 500 µM.

What about the “AUC (dose response)” value (P000302 (Healthy cells); P000302 (Healthy cells)) of the same compound?
The value was “AUC: 294.3”.

And the IC50 (RA055 (DMG); Homo sapiens)?
Its IC50 is about 200 µM.

What about the “AUC (dose response)” value (RA055 (DMG); RA055 (DMG)) of the same compound?
Its value is “AUC: 332.6”.

And the IC50 [1]?
Its IC50 is 120 µM.

And the “clinical maximum tolerated plasma concentration” value ([2]; human, in vivo)?
Its value is 530 µM.

And the “human tolerability of i.v.b. administration” value ([2]; i.v.b.)?
Its value is “approximately 500 mg/mg^2”.
